The structures appear in SMILES notation. Starred links: 1 amine or outer side, 2 acyl side, 3 side chain; linkers in the order of their positions; H or OH if unused. Positions of bridges follow the written chain, without caps; N, C: chain ends. Non-standard residues stand in square brackets, D forms with d. Residues, ends and D or L forms follow the SMILES beside them. *: point of attachment. hTyr(3S-OH,4S-OH,3'-OSO3H) = N[C@H](C(=O)O)[C@H](O)[C@@H](O)c1ccc(O)c(OS(=O)(=O)O)c1; Orn(4R-OH,5R-OH) = O=C([C@H](C[C@@H](O)[C@@H](O)N[*:3])N[*:1])[*:2]; Pro(3S-OH,4S-Me) = C[C@H]1CN[C@H](C(=O)O)[C@H]1O; X1 = CCCCCOc1ccc(-c2cc(-c3ccc(C(=O)*)cc3)no2)cc1; Gln(3R-OH) = NC(=O)C[C@@H](O)[C@H](N)C(=O)O; Hyp = O=C(O)[C@@H]1C[C@@H](O)CN1

Assay type in all cases: physicochemical
The nature of series [1]: Particle size distribution (d10, d50) by Malvern particle size analyzer / laser diffraction. To be noted: after drying. As to the method:
[…] Wherein, d10 and d50 are means known for indicating the particle size distribution. d50 refers to a value of particle size, and the size of 50 vol/% of particles is smaller than said value. D10 refers to a value of particle size, and the size of 10 vol/% of particles is smaller than said value. The preferred method for determining d10 and d50 is laser diffraction, d50 of the crystalline powder of the compound of formula I according to the present invention is determined as 10-100 um, and d10 is determined as 1-9 um. Preferably, d50 of the crystalline powder is 20-50 um, and d10 thereof is 1-5 um. Before solid-liquid separation, d50 of the crystalline powder of the compound of formula I is 10-100 um, and d10 thereof is 1-9 um. Preferably, d50 of the crystalline powder is 20-50 um, and d10 thereof is 3-6 um.

A short description of series [2]: Bulk density of powder by cylinder measurement. The conditions noted are these: after drying. The method, then: “Bulk density of powder” is a measurement standard for the relative importance of the interaction between microparticles by comparing the bulk density and tapped density of the powder. Methods for measuring bulk density of powder are known in the art; for example, it can be determined by cylinder measurement, volumetric measurement, and container measurement. Bulk density of the crystalline powder of the compound of formula I according to the present invention is determined as less than 0.7 g/mL, preferably less than 0.6 g/mL, most preferably less than 0.5 g/mL, by cylinder measurement.

Series [3] is described as follows: Ratio of dry weight to wet weight (Dry/Wet) of filtered solids. The conditions noted are these: wet solids weighed after filtration, before drying. The source says: As used herein, the term “Dry/Wet” and “ratio of dry weight to wet weight” can be used interchangeably, both of which refer to the ratio of the weight of a compound without solvent(s) to the weight of the compound with solvent(s). In the present invention, wet weight of crystals is obtained by filtering the crystallized solids until no noticeable droplet outflows and weighing the solids.

Series [4] is described as follows: Vacuum-drying at 25° C. with a water system until no organic solvent detected by GC; purity by HPLC. The conditions noted are these: for time Needed (for drying): 25° C., vacuum-drying with a water system until no organic solvent detected by GC; for Purity before drying / Purity after drying: HPLC; for Purity before drying: 5 g of solids; for Purity after drying: vacuum-dried at 25° C. with a water system until no organic solvent detected by GC. The source says:
High performance liquid chromatography (HPLC) is a common method for determining the purity of a compound, wherein a liquid is used as the mobile phase and a high-pressure transfusion system is used for pumping the mobile phase, such as single solvents with different polarities, a mixture of solvents at different proportions, or buffers, into a column packed with a stationary phase. Each component is separated in the column, and then enters into a detector for detection, thereby analyzing a sample. In the present invention, HPLC is used for determining the purity of the compound of formula I and studying the stability of a sample. Conditions of the HPLC method are listed as follows:
Analysis Column: YMC-ODS 250×4.6 mm, 5 μm;
Mobile phase: acetonitrile:phosphate buffer (pH 3.0)=45:70;
Column temperature: 35° C.;
Diluent: aqueous phosphate buffer;
Detection wavelength: 210 nm;
Gas chromatography (GC) used to separate and measure trace impurities in a compound is an accurate, qualitative and quantitative method of analysis. In the present invention, the content of organic solvents in the crystalline powder of the compound of formula I obtained in the present invention is measured by gas chromatography (GC).
5 g of solids were prepared according to the methods of Examples 2-10 and Comparative Examples 1-3 respectively, placed at 25° C., and vacuum-dried together with a water system until no organic solvent was detected through GC. The time for drying was compared, and the purity of the sample was analyzed.

Consider `CCCCCOc1ccc(-c2cc(-c3ccc(C(=O)N[C@H]4C[C@@H](O)[C@@H](O)NC(=O)[C@@H]5[C@@H](O)[C@@H](C)CN5C(=O)[C@H]([C@H](O)CC(N)=O)NC(=O)[C@H]([C@H](O)[C@@H](O)c5ccc(O)c(OS(=O)(=O)[O-])c5)NC(=O)[C@@H]5C[C@@H](O)CN5C(=O)[C@H]([C@@H](C)O)NC4=O)cc3)no2)cc1.[Na+]` [Example 2] (X1-[Orn(4R-OH,5R-OH)]T[Hyp][hTyr(3S-OH,4S-OH,3'-OSO3H)][Gln(3R-OH)][Pro(3S-OH,4S-Me)]; lactam 1-C), for which, in series [1], the “d10, particle size of the crystalline powder” value (“d10, particle size” for short) is 3 um and the “d50, particle size of the crystalline powder” value (shortened to “d50, particle size”) amounted to 31.9 um. For the same molecule, the Bulk density in series [2] was determined as 0.45 g/mL. For the same molecule, in series [3], the “ratio of dry weight to wet weight (Dry/Wet)” value (“ratio … (Dry/Wet)” for short) turned out to be 0.45. For the same molecule, in series [4], the “time Needed (for drying)” value is on record as 7 h, the Purity before drying turned out to be 99.68% and the Purity after drying was determined as 99.68%.
On to `CCCCCOc1ccc(-c2cc(-c3ccc(C(=O)N[C@H]4C[C@@H](O)[C@@H](O)NC(=O)[C@@H]5[C@@H](O)[C@@H](C)CN5C(=O)[C@H]([C@H](O)CC(N)=O)NC(=O)[C@H]([C@H](O)[C@@H](O)c5ccc(O)c(OS(=O)(=O)[O-])c5)NC(=O)[C@@H]5C[C@@H](O)CN5C(=O)[C@H]([C@@H](C)O)NC4=O)cc3)no2)cc1.[Na+]` [Example 3] (X1-[Orn(4R-OH,5R-OH)]T[Hyp][hTyr(3S-OH,4S-OH,3'-OSO3H)][Gln(3R-OH)][Pro(3S-OH,4S-Me)]; lactam 1-C), for which, in series [1], the “d10, particle size” value was determined as 3.7 um and the “d50, particle size” value is 43.1 um. In series [2], this molecule yielded a Bulk density of 0.43 g/mL. Also, the “ratio … (Dry/Wet)” value in series [3] is listed as 0.52. In series [4], the “time Needed (for drying)” value is reported as 6.5 h, the Purity before drying was 99.63% and the Purity after drying came out at 99.61%.
With `CCCCCOc1ccc(-c2cc(-c3ccc(C(=O)N[C@H]4C[C@@H](O)[C@@H](O)NC(=O)[C@@H]5[C@@H](O)[C@@H](C)CN5C(=O)[C@H]([C@H](O)CC(N)=O)NC(=O)[C@H]([C@H](O)[C@@H](O)c5ccc(O)c(OS(=O)(=O)[O-])c5)NC(=O)[C@@H]5C[C@@H](O)CN5C(=O)[C@H]([C@@H](C)O)NC4=O)cc3)no2)cc1.[Na+]` [Example 4] (X1-[Orn(4R-OH,5R-OH)]T[Hyp][hTyr(3S-OH,4S-OH,3'-OSO3H)][Gln(3R-OH)][Pro(3S-OH,4S-Me)]; lactam 1-C), in series [1], the “d10, particle size” value stood at 5.1 um and the “d50, particle size” value is given as 50 um. The same molecule yielded a Bulk density in series [2] of 0.55 g/mL. The “ratio … (Dry/Wet)” value in series [3] is 0.61. In series [4], the “time Needed (for drying)” value is given as 9 h, the Purity before drying is listed as 99.64% and the Purity after drying turned out to be 99.64%.
Turning to `CCCCCOc1ccc(-c2cc(-c3ccc(C(=O)N[C@H]4C[C@@H](O)[C@@H](O)NC(=O)[C@@H]5[C@@H](O)[C@@H](C)CN5C(=O)[C@H]([C@H](O)CC(N)=O)NC(=O)[C@H]([C@H](O)[C@@H](O)c5ccc(O)c(OS(=O)(=O)[O-])c5)NC(=O)[C@@H]5C[C@@H](O)CN5C(=O)[C@H]([C@@H](C)O)NC4=O)cc3)no2)cc1.[Na+]` [Example 5] (X1-[Orn(4R-OH,5R-OH)]T[Hyp][hTyr(3S-OH,4S-OH,3'-OSO3H)][Gln(3R-OH)][Pro(3S-OH,4S-Me)]; lactam 1-C), in series [1], the “d10, particle size” value was found to be 9 um and the “d50, particle size” value turned out to be 97.7 um. This molecule also registered a Bulk density in series [2] of 0.6 g/mL. Also, the “ratio … (Dry/Wet)” value in series [3] is on record as 0.66. Besides, in series [4], the “time Needed (for drying)” value turned out to be 10 h, the Purity before drying stood at 99.52% and the Purity after drying was determined as 99.47%.
With `CCCCCOc1ccc(-c2cc(-c3ccc(C(=O)N[C@H]4C[C@@H](O)[C@@H](O)NC(=O)[C@@H]5[C@@H](O)[C@@H](C)CN5C(=O)[C@H]([C@H](O)CC(N)=O)NC(=O)[C@H]([C@H](O)[C@@H](O)c5ccc(O)c(OS(=O)(=O)[O-])c5)NC(=O)[C@@H]5C[C@@H](O)CN5C(=O)[C@H]([C@@H](C)O)NC4=O)cc3)no2)cc1.[Na+]` [Example 6] (X1-[Orn(4R-OH,5R-OH)]T[Hyp][hTyr(3S-OH,4S-OH,3'-OSO3H)][Gln(3R-OH)][Pro(3S-OH,4S-Me)]; lactam 1-C), in series [1], the “d50, particle size” value is on record as 48.7 um. In series [2], this molecule came in with a Bulk density of 0.49 g/mL. For the same molecule, the “ratio … (Dry/Wet)” value in series [3] is on record as 0.6. In series [4], the “time Needed (for drying)” value stood at 8.5 h, the Purity before drying stood at 99.61% and the Purity after drying was 99.6%.
As to `CCCCCOc1ccc(-c2cc(-c3ccc(C(=O)N[C@H]4C[C@@H](O)[C@@H](O)NC(=O)[C@@H]5[C@@H](O)[C@@H](C)CN5C(=O)[C@H]([C@H](O)CC(N)=O)NC(=O)[C@H]([C@H](O)[C@@H](O)c5ccc(O)c(OS(=O)(=O)[O-])c5)NC(=O)[C@@H]5C[C@@H](O)CN5C(=O)[C@H]([C@@H](C)O)NC4=O)cc3)no2)cc1.[Na+]` [Example 7] (X1-[Orn(4R-OH,5R-OH)]T[Hyp][hTyr(3S-OH,4S-OH,3'-OSO3H)][Gln(3R-OH)][Pro(3S-OH,4S-Me)]; lactam 1-C), in series [1], the “d10, particle size” value came out at 1 um and the “d50, particle size” value is 10 um. Moreover, in series [2], the Bulk density was determined as 0.6 g/mL. For the same molecule, in series [3], the “ratio … (Dry/Wet)” value is on record as 0.69. Also, in series [4], the “time Needed (for drying)” value is 9.5 h, the Purity before drying came to 99.65% and the Purity after drying turned out to be 99.57%.
With `CCCCCOc1ccc(-c2cc(-c3ccc(C(=O)N[C@H]4C[C@@H](O)[C@@H](O)NC(=O)[C@@H]5[C@@H](O)[C@@H](C)CN5C(=O)[C@H]([C@H](O)CC(N)=O)NC(=O)[C@H]([C@H](O)[C@@H](O)c5ccc(O)c(OS(=O)(=O)[O-])c5)NC(=O)[C@@H]5C[C@@H](O)CN5C(=O)[C@H]([C@@H](C)O)NC4=O)cc3)no2)cc1.[Na+]` [Example 8] (X1-[Orn(4R-OH,5R-OH)]T[Hyp][hTyr(3S-OH,4S-OH,3'-OSO3H)][Gln(3R-OH)][Pro(3S-OH,4S-Me)]; lactam 1-C), in series [1], the “d10, particle size” value amounted to 2.6 um and the “d50, particle size” value is 18.7 um. This molecule returned a Bulk density in series [2] of 0.38 g/mL. The “ratio … (Dry/Wet)” value in series [3] worked out at 0.45. In series [4], the “time Needed (for drying)” value is given as 6 h, the Purity before drying was found to be 99.52% and the Purity after drying came out at 99.46%.
As to `CCCCCOc1ccc(-c2cc(-c3ccc(C(=O)N[C@H]4C[C@@H](O)[C@@H](O)NC(=O)[C@@H]5[C@@H](O)[C@@H](C)CN5C(=O)[C@H]([C@H](O)CC(N)=O)NC(=O)[C@H]([C@H](O)[C@@H](O)c5ccc(O)c(OS(=O)(=O)[O-])c5)NC(=O)[C@@H]5C[C@@H](O)CN5C(=O)[C@H]([C@@H](C)O)NC4=O)cc3)no2)cc1.[Na+]` [Example 9] (X1-[Orn(4R-OH,5R-OH)]T[Hyp][hTyr(3S-OH,4S-OH,3'-OSO3H)][Gln(3R-OH)][Pro(3S-OH,4S-Me)]; lactam 1-C), in series [1], the “d10, particle size” value was determined as 1.3 um and the “d50, particle size” value stood at 20 um. Moreover, the Bulk density in series [2] was found to be 0.54 g/mL. In series [3], the “ratio … (Dry/Wet)” value amounted to 0.62. Moreover, in series [4], the “time Needed (for drying)” value stood at 8.5 h, the Purity before drying worked out at 99.42% and the Purity after drying was determined as 99.38%.

The record behind these values is patent publication US10138275B2, “Crystalline powder of cyclic peptide compound, preparation method for same, and uses thereof” (SHANGHAI TECHWELL BIOPHARMACEUTICAL CO., LTD, priority 2014, dated 2018).
